The values that follow come from US20150344540A1, “NOVEL GLP-1 RECEPTOR AGONISTS WITH CHOLESTEROL EFFLUX ACTIVITY” (NOVO NORDISK A/S, priority 2012, published 2015).

Where two headings read alike, the source gives them in different places. Where a SMILES comes first, the peptide text is derived from it. [ ]: non-standard residue; d: D form. Aib = CC(C)(N)C(=O)O

Data set [1] deals with human GLP-1 receptor (human, UniProt P43220).
Data set [2] concerns the target T1, human GLP-1 receptor (Homo sapiens, UniProt P43220).
Data set [3] has as its system Mouse monocyte/macrophage cell line, RAW 264.7. As to the kind of experiment: Cholesterol efflux assay (3H-cholesterol, macrophage cell line). Particulars: RAW 264.7, 4 hrs incubation, 0.1% human serum albumin, ABCA1-mediated efflux. The data set is classed as cell-based.
Data set [4] is described as follows: Pharmacokinetics in mini-pigs after i.v. administration. Particulars: female, Göttingen, minipig, plasma, iv, 5 nmol/kg. The gist of the method:
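Female Göttingen mini-pigs (15-20 kg, N=3) received 5 nmol/kg i.v. via central venous catheter. Plasma levels of N-terminally intact peptide measured by LOCI immunoassay with N-terminal and mid-/C-terminal antibodies; non-compartmental analysis of individual profiles.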

Data set [5] addresses T1, human GLP-1 receptor. As to the kind of experiment: Functional GLP-1 receptor assay, in vitro potency (CRE luciferase; whole cells). The following applies: BHK cells expressing human GLP-1 receptor. The data set is classed as cell-based.
Target sequence in this assay (P43220 24-463): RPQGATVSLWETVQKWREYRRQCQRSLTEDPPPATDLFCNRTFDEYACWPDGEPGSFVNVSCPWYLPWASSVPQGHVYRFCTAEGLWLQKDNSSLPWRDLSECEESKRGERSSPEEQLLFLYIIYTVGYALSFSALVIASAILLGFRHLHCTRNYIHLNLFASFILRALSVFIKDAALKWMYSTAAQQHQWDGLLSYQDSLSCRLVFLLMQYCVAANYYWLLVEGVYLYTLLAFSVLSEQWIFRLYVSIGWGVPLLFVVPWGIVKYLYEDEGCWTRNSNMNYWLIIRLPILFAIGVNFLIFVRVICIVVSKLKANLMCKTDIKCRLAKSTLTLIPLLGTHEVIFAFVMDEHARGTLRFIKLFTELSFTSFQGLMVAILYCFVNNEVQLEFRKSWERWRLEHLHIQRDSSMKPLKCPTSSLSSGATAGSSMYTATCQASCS
Data set [6] in a line: Pharmacokinetics in normal mice after i.v. and s.c. administration. The data set is classed as in vivo, female C57B1/6J mice.
Protocol: The mice, 60 female C57B1/6J were purchased from Taconic, arriving at Novo Nordisk A/S Animal Unit at 6-7 weeks of age. The mice were housed according to standard rules in the animal unit and given free access to standard chow and tap water. The animals were kept at a room temperature and housed in groups of 8 mice, with free access to food and water, according to Animal Unit's SOP (Housing of experimental animals at Novo Nordisk A/S).
Peptide is administered as a single dose either s.c. or i.v.
After the 2nd sample the mice were sacrificed. The plasma concentrations of the compounds with intact N-terminus were determined using a Luminescence Oxygen Chanelling Immuno-assay (LOCI). The donor beads were coated with streptavidin, while acceptor beads were conjugated with a monoclonal antibody recognizing a mid-/C-terminal epitope of the peptide. The other monoclonal antibody, specific for the N-terminus, was biotinylated. The three reactants were combined with the analyte and formed a two-sited immuno-complex. Illumination of the complex released singlet oxygen atoms from the donor beads, which were channeled into the acceptor beads and triggered chemiluminescence which was measured in an Envision plate reader. The amount of light was proportional to the concentration of the compound.
[7] abbreviates: T1/2 Mean Value, Göttingen mini-pigs, N=3.
Where [8] appears, read: GLP1R CRE luc 1% HSA EC50 Mean Value, 1% HSA.
Where [9] appears, read: female, C57B1/6J, mouse, plasma, sc.
Setting [10] is: mice, s.c., Compound 1 dose 323 nmol/kg, Compound 5 dose 62 nmol/kg.
Setting [11] is: 0% HSA, read-out: GLP1R CRE luc 0% HSA EC50 Mean Value.

In the case of “[Glu15,Glu16,Gln17,Ala18,Lys20,Glu21,Ile23,Ala24,Leu27,Glu28,Lys29]-Glucagonyl-(1-29)-Aib-Lys-Glu-Phe-Leu amide (peptide)”, in the data set with human GLP-1 receptor [1], the CRE luciferase EC50, 0% HSA was found to be 118 pM and the CRE luciferase EC50, 1% HSA was 61 pM.

In the data set with human GLP-1 receptor [1], “[Glu15,Glu16,Lys17,Lys18,Lys20,Glu21,Ile23,Ala24,Leu27,Glu28,Lys29]-Glucagonyl-(1-29)-Aib-Lys-Glu-Phe-Leu amide (peptide)” displayed a CRE luciferase EC50, 0% HSA of 1170 pM and a CRE luciferase EC50, 1% HSA of 588 pM.

In the data set with human GLP-1 receptor [1], “[Aib2,Gly16,Lys17,Ala18,Arg20,Glu21,Leu27,Glu28,Lys29]-Glucagonyl-(1-29)-Aib-Lys-Glu-Phe-Leu amide (peptide)” gave a CRE luciferase EC50, 0% HSA of 1630 pM and a CRE luciferase EC50, 1% HSA of 908 pM.

Regarding “[Glu15,Glu16,Lys17,Ala18,Lys20,Glu21,Ile23,Ala24,Leu27,Glu28,Lys29]-Glucagonyl-(1-29)-Aib-Lys-Glu-Phe-Leu amide (peptide)”, in the data set with human GLP-1 receptor [1], the CRE luciferase EC50, 0% HSA came out at 86 pM and the CRE luciferase EC50, 1% HSA is 44 pM.

Turning to “[Lys17,Ala18,Arg20,Glu21,Leu27,Glu28,Lys29]-Glucagonyl-(1-29)-Aib-Lys-Glu-Phe-Leu amide (peptide)”, in the data set with human GLP-1 receptor [1], the CRE luciferase EC50, 0% HSA was found to be 434 pM and the CRE luciferase EC50, 1% HSA came out at 198 pM.

In the data set with human GLP-1 receptor [2], Exendin-4(1-39) (ligand) came in with a CRE luciferase EC50, 0% HSA of 5 pM and a CRE luciferase EC50, 1% HSA of 4 pM.

In the data set with human GLP-1 receptor [1], “[Aib2,Gly16,Lys17,Arg20,Glu21,Leu27,Glu28,Lys29]-Glucagonyl-(1-29)-Aib-Lys-Glu-Phe-Leu amide (peptide)” registered a CRE luciferase EC50, 0% HSA of 591 pM and a CRE luciferase EC50, 1% HSA of 297 pM.

For the molecule `CC[C@H](C)[C@H](NC(=O)[C@H](Cc1ccccc1)NC(=O)[C@H](CCC(=O)O)NC(=O)[C@H](CCCCN)NC(=O)[C@@H](NC(=O)[C@H](C)NC(=O)[C@H](CCC(=O)O)NC(=O)CNC(=O)[C@H](CCC(=O)O)NC(=O)[C@H](CC(C)C)NC(=O)[C@H](Cc1ccc(O)cc1)NC(=O)[C@H](CO)NC(=O)[C@H](CO)NC(=O)[C@@H](NC(=O)[C@H](CC(=O)O)NC(=O)[C@H](CO)NC(=O)[C@@H](NC(=O)[C@H](Cc1ccccc1)NC(=O)[C@@H](NC(=O)CNC(=O)[C@H](CCC(=O)O)NC(=O)C(C)(C)NC(=O)[C@@H](N)Cc1c[nH]cn1)[C@@H](C)O)[C@@H](C)O)C(C)C)C(C)C)C(=O)N[C@@H](C)C(=O)N[C@@H](Cc1c[nH]c2ccccc12)C(=O)N[C@@H](CC(C)C)C(=O)N[C@H](C(=O)N[C@@H](CCC(=O)O)C(=O)N[C@@H](CCCCN)C(=O)N[C@H](C(=O)N[C@@H](CCCCN)C(=O)N[C@@H](CCC(=O)O)C(=O)N[C@@H](Cc1c[nH]cn1)C(=O)N[C@@H](CC(C)C)C(N)=O)C(C)C)C(C)C` [Compound 5, [Aib8,Glu23,Val25,Glu34,Lys35,Val36,Lys37]-GLP-1-(7-37)-peptidyl-Glu-His-Leu amide] (H-H[Aib]EGTFTSDVSSYLEGEAVKEFIAWLVEKVKEHL-NH2), the “4 h Cholesterol Efflux Emax” value in data set [3] amounted to 111%. The C0 in data set [4] was 63.3 nM. Also, the Vd in data set [4] is 0.128 L/kg; in data set [6] (female, C57B1/6J, mouse, plasma, iv, read-out: Volume of distribution), 0.048 L/kg. The clearance in data set [4] was 3.87 mL/h/kg; in data set [6] (mice, i.v., Compound 1 dose 99 nmol/kg, Compound 5 dose 135 nmol/kg), 5.6 mL/h/kg; in data set [6] (setting [10]) it was 8.298 mL/h/kg. The half-life (in general, how long it takes for the measured level to halve) in data set [4] (T1/2, mini-pigs) was 23 h; in data set [4] (setting [7]) it was 23 h; in data set [6] (female, C57B1/6J, mouse, plasma, iv) it was 5.9 h; in data set [6] (setting [9]) it was 9.7 h. Further, on human GLP-1 receptor [5] (setting [8]), the midpoint of the response, the EC50, lay at 116 pM. In addition, the Tmax (as a rule, the time at which the peak concentration occurs) in data set [6] (setting [9]) was 4 h. In data set [6] (setting [10]), this molecule displayed a Volume of distribution of 0.1164 L/kg.

In the case of `CC[C@H](C)[C@H](NC(=O)[C@H](Cc1ccccc1)NC(=O)[C@H](CCC(=O)O)NC(=O)[C@H](CCCCN)NC(=O)[C@@H](NC(=O)[C@H](C)NC(=O)[C@H](CCC(=O)O)NC(=O)CNC(=O)[C@H](CCC(=O)O)NC(=O)[C@H](CC(C)C)NC(=O)[C@H](Cc1ccc(O)cc1)NC(=O)[C@H](CO)NC(=O)[C@H](CO)NC(=O)[C@@H](NC(=O)[C@H](CC(=O)O)NC(=O)[C@H](CO)NC(=O)[C@@H](NC(=O)[C@H](Cc1ccccc1)NC(=O)[C@@H](NC(=O)CNC(=O)[C@H](CCC(=O)O)NC(=O)C(C)(C)NC(=O)[C@@H](N)Cc1c[nH]cn1)[C@@H](C)O)[C@@H](C)O)C(C)C)C(C)C)C(=O)N[C@@H](C)C(=O)N[C@@H](Cc1c[nH]c2ccccc12)C(=O)N[C@@H](CC(C)C)C(=O)N[C@H](C(=O)N[C@@H](CCC(=O)O)C(=O)N[C@@H](CCCCN)C(=O)NC(C)(C)C(=O)N[C@@H](CCCCN)C(=O)N[C@@H](CCC(=O)O)C(=O)N[C@@H](Cc1ccccc1)C(N)=O)C(C)C` [Compound 62, [Aib8,Glu23,Val25,Glu34,Lys35,Aib36,Lys37]-GLP-1-(7-37)-peptidyl-Glu-Phe amide] (H-H[Aib]EGTFTSDVSSYLEGEAVKEFIAWLVEK[Aib]KEF-NH2), in data set [3], the “4 h Cholesterol Efflux Emax” value is 111%. Further, in data set [4], the C0 was found to be 50.6 nM, the Vd is 0.0654 L/kg and the clearance was 2.66 mL/h/kg. This molecule had a half-life in data set [4] (setting [7]) of 16.7 h. In addition, the EC50 (in general, the concentration that produces a half-maximal response) on human GLP-1 receptor [5] (setting [11]) turned out to be 22 pM. The same molecule came in with an EC50 at human GLP-1 receptor [5] (setting [8]) of 15 pM.

As for “[Aib2,Lys17,Ala18,Arg20,Glu21,Leu27,Glu28,Lys29]-Glucagonyl-(1-29)-Aib-Lys-Glu-Phe-Leu amide (peptide)”, in the data set with human GLP-1 receptor [1], the CRE luciferase EC50, 0% HSA is 393 pM and the CRE luciferase EC50, 1% HSA is 153 pM.

In the case of `CC[C@H](C)[C@H](NC(=O)[C@H](Cc1ccccc1)NC(=O)[C@H](CCC(=O)O)NC(=O)[C@H](CCCCN)NC(=O)[C@@H](NC(=O)[C@H](C)NC(=O)[C@H](CCC(=O)O)NC(=O)CNC(=O)[C@H](CCC(=O)O)NC(=O)[C@H](CC(C)C)NC(=O)[C@H](Cc1ccc(O)cc1)NC(=O)[C@H](CO)NC(=O)[C@H](CO)NC(=O)[C@@H](NC(=O)[C@H](CC(=O)O)NC(=O)[C@H](CO)NC(=O)[C@@H](NC(=O)[C@H](Cc1ccccc1)NC(=O)[C@@H](NC(=O)CNC(=O)[C@H](CCC(=O)O)NC(=O)C(C)(C)NC(=O)[C@@H](N)Cc1c[nH]cn1)[C@@H](C)O)[C@@H](C)O)C(C)C)C(C)C)C(=O)N[C@@H](CCC(N)=O)C(=O)N[C@@H](Cc1c[nH]cn1)C(=O)N[C@@H](CC(C)C)C(=O)N[C@H](C(=O)N[C@@H](CCC(=O)O)C(=O)N[C@@H](CCCCN)C(=O)N[C@@H](CC(C)C)C(=O)N[C@@H](CCCCN)C(=O)N[C@@H](CCC(=O)O)C(=O)N[C@@H](Cc1ccccc1)C(=O)N[C@@H](CC(C)C)C(N)=O)C(C)C` [Compound 87, [Aib8,Glu23,Val25,Gln30,His31,Glu34,Lys35,Leu36,Lys37]-GLP-1-(7-37)-peptidyl-Glu-Phe-Leu amide] (H-H[Aib]EGTFTSDVSSYLEGEAVKEFIQHLVEKLKEFL-NH2), the “4 h Cholesterol Efflux Emax” value in data set [3] is 121%. Moreover, in data set [4], the C0 came out at 155 nM, the Vd worked out at 0.0958 L/kg and the clearance is 3.47 mL/h/kg. The same molecule had a half-life in data set [4] (setting [7]) of 19 h. The EC50 at human GLP-1 receptor [5] (setting [11]) came out at 77 pM. Moreover, it took 25 pM to reach a half-maximal effect on human GLP-1 receptor [5] (setting [8]) (EC50).

Regarding “[Aib2,His3,Glu15,Glu16,Glu17,Ala18,Lys20,Glu21,Ile23,Ala24,Leu27,Glu28,Lys29]-Glucagonyl-(1-29)-Aib-Lys-Glu-Phe-Leu amide (peptide)”, in the data set with human GLP-1 receptor [1], the CRE luciferase EC50, 0% HSA was 80 pM and the CRE luciferase EC50, 1% HSA came out at 49 pM.
